Laboratory results published in patent US12521393B2, “Cytotoxicity targeting chimeras for CCR2-expressing cells” (GLAXOSMITHKLINE INTELLECTUAL PROPERTY DEVELOPMENT LIMITED, priority 2021, dated 2026).

Tests used:
[1] = tested on: CCR2 expressing cells (CD11b+Ly6c+Hi) in peripheral blood; test: In vivo depletion assay, flow cytometry of peripheral blood (Example 201); design: species or system human CCR2 knock-in mice (C57 background); conditions: hCCR2 knock-in mice, IV 0.1 mpk compound + 10 mpk anti-cotinine antibody (SEQ ID NO: 13/14), peripheral blood at 48 hr
Summary of the method: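 Mice dosed with compound formulated in saline/DMSO/PBS, with anti-cotinine antibody (rabbit variable region, mouse IgG2a Fc) where required, pre-incubated 30 min at room temperature. Terminal peripheral blood RBC-lysed, Fc-blocked, stained for CD45, CD3, CD11b, Ly6C, human CCR2 and 7AAD; percent depletion of CD11b+Ly6c+Hi cells determined by flow cytometry.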

[2] = molecular target: anti-cotinine antibody (SEQ ID NO: 11/12, rabbit variable region with human IgG1 Fc DE mutation); test: SPR binding of anti-cotinine antibody to ARM compounds, Biacore T200, 37° C. (Example 202); conditions: SPR Biacore T200, 37° C., pH 7.4, antibody SEQ ID NO: 11/12 captured on protein A; Kd in molar
Summary of the method: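 Antibody captured on a protein A chip; ARM compounds injected at 100 μL/min (200 s association, 2000 s dissociation), 3-fold 5-point series from 200 nM, at 37 °C in HEPES pH 7.4 buffer with 0.005% P20 and 1% DMSO. Double-referenced sensorgrams fit 1:1 for kon, koff, Kd (koff/kon), residence time (1/koff); pKd averaged across runs.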

[3] = tested on: endogenous target monocytes in human PBMC; test: PBMC ex vivo monocyte depletion flow cytometry assay (Example 200); assay type: cell-based; conditions: with anti-cotinine antibody (SEQ ID NO: 11/12), 18-24 hours, EC50 in molar, read-out: Ex Vivo Depletion Assay pEC50 (converted)
Summary of the method: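 Monocyte depletion is reported as pEC50, averaged or given individually across runs, and read by flow cytometry staining CD45, CD14 and CD4 with a viability dye. Compounds, diluted four-fold over 11 points from 1 mM DMSO stocks, were combined with 30 μg/mL Fc-enhanced anti-cotinine antibody and human PBMC, then incubated 18-24 h at 37° C.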

Compound | % Depletion of CCR2 expressing cells [1] [%] | pKd of Antibody for ARM Compound of Formula (I) [2] | EC50 [3] [pM]
CC(C)N(C)[C@@H]1CC[C@H](N2CC[C@H](Nc3ncnc4ccc(C(F)(F)F)cc34)C2=O)[C@H](NC(=O)CCCNc2c(NCCOCCOCCOCCOCCNC(=O)[C@H]3CC(=O)N(C)[C@@H]3c3cccnc3)c(=O)c2=O)C1 [Example 164, (2S,3S)-N-(14-((2-((4-(((1R,2S,5R)-5-(Isopropyl(methyl)amino)-2-((S)-2-oxo-3-((6-(trifluoromethyl)quinazolin-4-yl)amino)pyrrolidin-1-yl)cyclohexyl)amino)-4-oxobutyl)amino)-3,4-dioxocyclobut-1-en-1-yl)amino)-3,6,9,12-tetraoxatetradecyl)-1-methyl-5-oxo-2-(pyridin-3-yl)pyrrolidine-3-carboxamide] | 86 | 9.3225 | 1000
CC(C)N(C)[C@@H]1CC[C@H](N2CC[C@H](Nc3ncnc4ccc(C(F)(F)F)cc34)C2=O)[C@H](NC(=O)[C@H]2CC[C@@H](NC(=O)COCCNC(=O)CCOCCNC(=O)[C@H]3CC(=O)N(C)[C@@H]3c3cccnc3)CC2)C1 [Example 152, (2S,3S)-N-(2-(3-((2-(2-(((1S,4s)-4-(((1R,2S,5R)-5-(Isopropyl(methyl)amino)-2-((S)-2-oxo-3-((6-(trifluoromethyl)quinazolin-4-yl)amino)pyrrolidin-1-yl)cyclohexyl)carbamoyl)cyclohexyl)amino)-2-oxoethoxy)ethyl)amino)-3-oxopropoxy)ethyl)-1-methyl-5-oxo-2-(pyridin-3-yl)pyrrolidine-3-carboxamide] | 82 | 9.111 | 1260
CC(C)N(C)[C@@H]1CC[C@H](N2CC[C@H](Nc3ncnc4ccc(C(F)(F)F)cc34)C2=O)[C@H](NC(=O)[C@H]2CC[C@H](CNC(=O)CCOCCOCCOCCNC(=O)[C@H]3CC(=O)N(C)[C@@H]3c3cccnc3)CC2)C1 [Example 32, (2S,3S)-N-(1-((1S,4s)-4-(((1R,2S,5R)-5-(Isopropyl(methyl)amino)-2-((S)-2-oxo-3-((6-(trifluoromethyl)quinazolin-4-yl)amino)pyrrolidin-1-yl)cyclohexyl)carbamoyl)cyclohexyl)-3-oxo-6,9,12-trioxa-2-azatetradecan-14-yl)-1-methyl-5-oxo-2-(pyridin-3-yl)pyrrolidine-3-carboxamide] | 83 | 9.1825 | 398
CC(C)N(C)[C@@H]1CC[C@H](N2CC[C@H](Nc3ncnc4ccc(C(F)(F)F)cc34)C2=O)[C@H](NC(=O)[C@H]2CC[C@@H](NC(=O)CCCOC[C@H]3CC[C@@H](COCCNC(=O)[C@H]4CC(=O)N(C)[C@@H]4c4cccnc4)CC3)CC2)C1 [Example 61, (2S,3S)-N-(2-(((1S,4R)-4-((4-(((1S,4S)-4-(((1R,2S,5R)-5-(Isopropyl(methyl)amino)-2-((S)-2-oxo-3-((6-(trifluoromethyl)quinazolin-4-yl)amino)pyrrolidin-1-yl)cyclohexyl)carbamoyl)cyclohexyl)amino)-4-oxobutoxy)methyl)cyclohexyl)methoxy)ethyl)-1-methyl-5-oxo-2-(pyridin-3-yl)pyrrolidine-3-carboxamide] | 92 | 9.558 | 316
CN1C(=O)C[C@H](C(=O)NCCOCCOCCOCCC(=O)N[C@H]2CC[C@H](C(=O)N[C@@H]3C[C@H](NC(C)(C)C)CC[C@@H]3N3CC[C@H](Nc4ncnc5ccc(C(F)(F)F)cc45)C3=O)CC2)[C@H]1c1cccnc1 [Example 31, (2S,3S)-N-(2-(2-(2-(3-(((1S,4s)-4-(((1R,2S,5R)-5-(tert-Butylamino)-2-((S)-2-oxo-3-((6-(trifluoromethyl)quinazolin-4-yl)amino)pyrrolidin-1-yl)cyclohexyl)carbamoyl)cyclohexyl)amino)-3-oxopropoxy)ethoxy)ethoxy)ethyl)-1-methyl-5-oxo-2-(pyridin-3-yl)pyrrolidine-3-carboxamide] | 94.9 | 9.3015 | 3160
CC(C)N(C)[C@@H]1CC[C@H](N2CC[C@H](Nc3ncnc4ccc(C(F)(F)F)cc34)C2=O)[C@H](NC(=O)[C@H]2C[C@@H](NC(=O)CCOC[C@H]3CC[C@H](COCCNC(=O)[C@H]4CC(=O)N(C)[C@@H]4c4cccnc4)CC3)C2)C1 [Example 55, (2S,3S)-N-(2-(((1S,4S)-4-((3-(((1S,3S)-3-(((1R,2S,5R)-5-(Isopropyl(methyl)amino)-2-((S)-2-oxo-3-((6-(trifluoromethyl)quinazolin-4-yl)amino)pyrrolidin-1-yl)cyclohexyl)carbamoyl)cyclobutyl)amino)-3-oxopropoxy)methyl)cyclohexyl)methoxy)ethyl)-1-methyl-5-oxo-2-(pyridin-3-yl)pyrrolidine-3-carboxamide] | 76.2 | 9.4085 | 126
CC(C)N(C)[C@@H]1CC[C@H](N2CC[C@H](Nc3ncnc4ccc(C(F)(F)F)cc34)C2=O)[C@H](NC(=O)CCCC(=O)NCCCOCCCNC(=O)CCCNC(=O)[C@H]2CC(=O)N(C)[C@@H]2c2cccnc2)C1 [Example 173, N^1-((1R,2S,5R)-5-(Isopropyl(methyl)amino)-2-((S)-2-oxo-3-((6-(trifluoromethyl)quinazolin-4-yl)amino)pyrrolidin-1-yl)cyclohexyl)-N5-(3-(3-(4-((2S,3S)-1-methyl-5-oxo-2-(pyridin-3-yl)pyrrolidine-3-carboxamido)butanamido)propoxy)propyl)glutaramide] | 91 | 9.1415 | 794
CC(C)N(C)[C@@H]1CC[C@H](N2CC[C@H](Nc3ncnc4ccc(C(F)(F)F)cc34)C2=O)[C@H](NC(=O)CCOCCOCCNC(=O)NCCOCCOCCNC(=O)[C@H]2CC(=O)N(C)[C@@H]2c2cccnc2)C1 [Example 119, (2S,3S)-N-(20-(((1R,2S,5R)-5-(Isopropyl(methyl)amino)-2-((S)-2-oxo-3-((6-(trifluoromethyl)quinazolin-4-yl)amino)pyrrolidin-1-yl)cyclohexyl)amino)-10,20-dioxo-3,6,14,17-tetraoxa-9,11-diazaicosyl)-1-methyl-5-oxo-2-(pyridin-3-yl)pyrrolidine-3-carboxamide] | 77 | 9.1735 | 1580
CC(C)N(C)[C@@H]1CC[C@H](N2CC[C@H](Nc3ncnc4ccc(C(F)(F)F)cc34)C2=O)[C@H](NC(=O)[C@H]2CC[C@H](NC(=O)CCCO[C@H]3CC[C@H](OCCNC(=O)[C@H]4CC(=O)N(C5CC5)[C@@H]4c4cccnc4)CC3)CC2)C1 [Example 13, (2S,3S)-1-cyclopropyl-N-(2-(((1R,4S)-4-(4-(((1R,4R)-4-(((1R,2S,5R)-5-(isopropyl(methyl)amino)-2-((S)-2-oxo-3-((6-(trifluoromethyl)quinazolin-4-yl)amino)pyrrolidin-1-yl)cyclohexyl)carbamoyl)cyclohexyl)amino)-4-oxobutoxy)cyclohexyl)oxy)ethyl)-5-oxo-2-(pyridin-3-yl)pyrrolidine-3-carboxamide] | 96.07 | 10.511 | –
CC(C)N(C)[C@@H]1CC[C@H](N2CC[C@H](Nc3ncnc4ccc(C(F)(F)F)cc34)C2=O)[C@H](NC(=O)[C@H]2CC[C@@H](NC(=O)CNC(=O)CCOCCOCCNC(=O)[C@H]3CC(=O)N(C)[C@@H]3c3cccnc3)CC2)C1 [Example 83, (2S,3S)-N-(2-(2-(3-((2-(((1S,4s)-4-(((1R,2S,5R)-5-(Isopropyl(methyl)amino)-2-((S)-2-oxo-3-((6-(trifluoromethyl)quinazolin-4-yl)amino)pyrrolidin-1-yl)cyclohexyl)carbamoyl)cyclohexyl)amino)-2-oxoethyl)amino)-3-oxopropoxy)ethoxy)ethyl)-1-methyl-5-oxo-2-(pyridin-3-yl)pyrrolidine-3-carboxamide] | 67 | 9.302 | –
CC(C)N(C)[C@@H]1CC[C@H](N2CC[C@H](Nc3ncnc4ccc(C(F)(F)F)cc34)C2=O)[C@H](NC(=O)[C@H]2CC[C@@H](NC(=O)CCCC(=O)NCCCC(=O)NCCCNC(=O)[C@H]3CC(=O)N(C)[C@@H]3c3cccnc3)CC2)C1 [Example 56, N^1-((1S,4s)-4-(((1R,2S,5R)-5-(Isopropyl(methyl)amino)-2-((S)-2-oxo-3-((6-(trifluoromethyl)quinazolin-4-yl)amino)pyrrolidin-1-yl)cyclohexyl)carbamoyl)cyclohexyl)-N^5-(4-((3-((2S,3S)-1-methyl-5-oxo-2-(pyridin-3-yl)pyrrolidine-3-carboxamido)propyl)amino)-4-oxobutyl)glutaramide] | 97 | 9.3185 | –
